{
  "source": "patent US20090098049A1",
  "about": "“Targeting transducible molecules to specific cell types” (The Regents of the University of California, priority 2004, published 2009)",
  "key": {"CXCR4 receptor": {"biological_target": "T1, CXCR4 receptor (Homo sapiens, UniProt P61073)", "T1 construct": "CXCR4 expressing Namalwa cells were washed 3 times with PBS/0.5% BSA and incubated on ice; endogenous in cells; host or cells: Namalwa B cells (human Burkitt's lymphoma, ATCC)", "T1 sequence (P61073 whole entry, the tested form may be a part)": "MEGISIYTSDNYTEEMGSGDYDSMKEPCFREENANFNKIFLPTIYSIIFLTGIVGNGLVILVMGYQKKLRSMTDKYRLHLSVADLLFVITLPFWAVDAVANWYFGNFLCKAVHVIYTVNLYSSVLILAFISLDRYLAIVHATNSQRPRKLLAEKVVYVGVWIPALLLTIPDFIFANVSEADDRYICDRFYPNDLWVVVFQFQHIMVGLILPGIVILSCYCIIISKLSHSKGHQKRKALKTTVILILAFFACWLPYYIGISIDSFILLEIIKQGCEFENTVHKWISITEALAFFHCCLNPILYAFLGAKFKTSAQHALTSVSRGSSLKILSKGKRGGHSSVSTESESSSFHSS", "assay": "CXCR4 binding assay (inhibition of 12G5-PE anti-CXCR4 antibody binding, flow cytometry)", "settings": "linked DV3 and TAT domains versus single domains, FIG. 1B", "method": "(a) Sequences of peptides used in some embodiments. All peptides were synthesized using D-isomer residues, except for the TAT-RxL peptides. (b) Human Namalwa lymphoma cells that overexpress CXCR4 receptor were incubated with increasing concentrations of peptide, followed by fluorescent PE-conjugated anti-CXCR4 monoclonal antibody incubation, then analyzed for antibody binding to CXCR4 receptor (mean fluorescence) by flow cytometry. Graph plots relative fluorescence of cells with respect to cells treated with antibody only. Data represents the mean and standard error from three independent experiments.\nCXCR4 binding assay. CXCR4 expressing Namalwa cells were washed 3 times with PBS/0.5% BSA and incubated on ice with phycoerythrin (PE)-labeled anti-CXCR4 monoclonal antibody (12G5-PE, R&D Systems, WI) and peptide. PE-labeled isotype matched antibody was used to control for non-specific cell surface binding. […]\nDV3 Enhances the Affinity of TAT Peptides for CXCR4 Expressing Cells. […] Human Namalwa Burkitt's lymphoma cells overexpressing the CXCR4 receptor were treated with various peptides to block the CXCR4 receptor, then incubated with phycoerythrin (PE) conjugated anti-CXCR4 antibody and analyzed by flow cytometry."}, "[1]": {"system": "CXCR4-expressing Namalwa lymphoma cells", "assay": "Namalwa lymphoma cell killing (trypan blue exclusion; apoptosis by DNA content)", "assay_type": "cell-based, Human", "settings": "for cell viability / cell number (in words): 30 μM peptide, single peptides or domains in trans, FIG. 3A", "method": "(a) Namalwa lymphoma cells were treated with 40 μM TATp53C′ or DV3-TATp53C′ peptide for 48 h. Cell viability was assessed by trypan blue exclusion. Data represents the mean and standard error from three independent experiments. […] Cells were treated with 5 μM peptide for 24 hours and analyzed for DNA content by flow cytometry. […] Cells were treated with indicated concentrations of cdk2 antagonists TAT-RxL or DV3-TAT-RxL peptides for 48 h. Cell viability was assessed by trypan blue exclusion. Data represents the mean and standard error from three independent experiments. (e) Namalwa lymphoma (CXCR4+) cells were treated with DV3-TATp53C′, TATp53C′ or DV3-TATp53MUT peptides for 24 hours. Apoptosis was determined by <2N DNA content as measured by flow cytometry and DNA staining.\nNamalwa lymphoma cells were treated with 30 μM peptide for 48 h. Cell viability was assessed by trypan blue exclusion. Data represents the mean and standard error from three independent experiments. […] Cells were treated with 30 μM DV3-TATp53C′ or parental TATp53C′ peptide for 48 h in the presence or absence of a 200 μM excess of DV3 peptide. Cell viability was assessed by trypan blue exclusion. Data represents the mean and standard error from three independent experiments.\nCell Culture and Flow Cytometry. TA3/St, H1299 and 293T cells were maintained in DMEM plus 10% fetal bovine serum (FBS) and penicillin/streptomycin (P/S). Namalwa B cells (ATCC) were maintained in RPMI plus 10% FBS, P/S. All cells were maintained at 37° C. in 5% CO2. Short-term cell viability was assessed by counting Trypan blue excluding cells on a hemocytometer. For cell cycle analysis, peptide treated cells were analyzed by FACS with 10 μg/ml propidium iodide in 0.5% NP-40. DNA profiles were analyzed using a FACScan and CellQuest software (Becton Dickinson, San Jose, Calif.)."}, "[2]": {"biological_target": "CXCR4 receptor on human Namalwa Burkitt's lymphoma cells (human) (UniProt P61073)", "sequence (P61073 whole entry)": "as the sequence (P61073 whole entry, the tested form may be a part) above", "assay": "flow cytometry on Namalwa cells; inhibition of 12G5-PE binding to CXCR4"}, "[3]": {"system": "TA3/St mammary carcinoma cells", "assay": "Peptide treatment of CXCR4 non-expressing TA3/St cells (cell cycle by flow cytometry)", "assay_type": "cell-based", "settings": "5 μM peptide, 24 hours, DNA content by flow cytometry, FIG. 2B", "method": "(§1) (a) Namalwa lymphoma cells were treated with 40 μM TATp53C′ or DV3-TATp53C′ peptide for 48 h. Cell viability was assessed by trypan blue exclusion. Data represents the mean and standard error from three independent experiments. (b) DV3-TATp53C′ and TATp53C′ peptides induce similar level of p53-dependent G1 cell cycle arrest in CXCR4 non-expressing TA3/St mammary carcinoma cells. Cells were treated with 5 μM peptide for 24 hours and analyzed for DNA content by flow cytometry. (c) DV3-TATp53C′, TATp53C′ and control DV3 peptide (30 μM) have no effect on CXCR4 non-expressing, p53-deficient H1299 lung adenocarcinoma cells. […] Cells were treated with indicated concentrations of cdk2 antagonists TAT-RxL or DV3-TAT-RxL peptides for 48 h. Cell viability was assessed by trypan blue exclusion. Data represents the mean and standard error from three independent experiments. […] Apoptosis was determined by <2N DNA content as measured by flow cytometry and DNA staining.\n(§2) Cell Culture and Flow Cytometry. […] Short-term cell viability was assessed by counting Trypan blue excluding cells on a hemocytometer. For cell cycle analysis, peptide treated cells were analyzed by FACS with 10 μg/ml propidium iodide in 0.5% NP-40. DNA profiles were analyzed using a FACScan and CellQuest software (Becton Dickinson, San Jose, Calif.)."}, "[4]": {"system": "H1299 lung adenocarcinoma cells", "assay": "Peptide treatment of p53-deficient H1299 cells", "assay_type": "cell-based, human", "settings": "30 μM peptide, FIG. 2C", "method": "as §1, §2"}, "Namalwa lymphoma cells": {"system": "Namalwa lymphoma cells", "assay": "Mouse model of metastatic peritoneal lymphoma (survival)", "assay_type": "in vivo", "settings": "SCID mice, Namalwa cells i.p., 180 nmol peptide once a day for 12 days, FIG. 5", "method": "FIG. 5. Targeted DV3-TATp53C′ peptide has enhanced ability to treat mouse model of aggressive, metastatic peritoneal lymphoma. Namalwa lymphoma cells were intraperitoneally injected into SCID mice and allowed to proliferate for 48 hours. Mice were then injected once a day for 12 days with vehicle control (n=10), or 180 nmol DV3-TATp53C′ peptide (n=11), non-targeted, parental TATp53C′ peptide (n=5), or control DV3-only peptide (n=5)."}},
  "note": "Non-standard residues stand in square brackets, D forms with d. No end group written: not given here.",
  "data": [
    {"molecule": "CC(C)C[C@@H](N)C(=O)NCC(=O)N[C@H](C)C(=O)N[C@H](CO)C(=O)N[C@H](Cc1c[nH]c2ccccc12)C(=O)N[C@H](Cc1c[nH]cn1)C(=O)N[C@H](CCCNC(=N)N)C(=O)N1CCC[C@@H]1C(=O)N[C@H](CC(=O)O)C(=O)N[C@H](CCCCN)C(=O)NCC(=O)N[C@H](CCCNC(=N)N)C(=O)N[C@H](CCCNC(=N)N)C(=O)N[C@H](CCCNC(=N)N)C(=O)N[C@H](CCC(N)=O)C(=O)N[C@H](CCCNC(=N)N)C(=O)N[C@H](CCCNC(=N)N)C(=O)N[C@H](CCCCN)C(=O)N[C@H](CCCCN)C(=O)N[C@H](CCCNC(=N)N)C(=O)NCC(=O)O", "note": "[DV3-TAT]", "values": [
      {"measurement": "increased affinity for the CXCR4 receptor", "setting": "CXCR4 receptor", "result": "~100", "unit": "fold"},
      {"measurement": "cell viability / cell number (in words)", "setting": "[1]; Namalwa cells, 48 h", "result": "minimal effects on cell number"}
    ]},
    {"molecule": "DV3-TAT peptide", "values": [
      {"measurement": "IC50", "setting": "[2]", "result": "< 10", "unit": "nM"},
      {"measurement": "fold increased affinity (against DV3 or TAT peptide alone)", "setting": "[2]", "result": 100, "unit": "fold"}
    ]},
    {"molecule": "DV3-TATp53C′ peptide", "values": [
      {"measurement": "IC50", "setting": "[2]", "result": "< 10", "unit": "nM"}
    ]},
    {"molecule": "[dL]G[dA][dS][dW][dH][dR][dP][dD][dK]G[dR][dR][dR][dQ][dR][dR][dK][dK][dR]G[dK][dK][dH][dR][dS][dT][dS][dQ]G[dK][dK][dS][dK][dL][dH][dS][dS][dH][dA][dR][dS]G [DV3-TATp53C′]", "values": [
      {"measurement": "reduction of cell number", "setting": "[1]; 40 μM peptide, 48 h, trypan blue exclusion, FIG. 2A", "result": "> 80", "unit": "%"},
      {"measurement": "cell killing in presence of excess competing DV3 peptide", "setting": "[1]; Namalwa cells, 30 μM peptide co-administered with 200 μM DV3 peptide, 48 h, FIG. 3B", "result": "reduced the potency of DV3-TATp53C′ peptide to levels similar to that of parental TATp53C′ peptide"},
      {"measurement": "cell viability / cell number (in words)", "setting": "[1]; Namalwa cells, 48 h", "result": "decreased viability to a significantly greater extent than treatment with parental TAT-p53C′ peptide"},
      {"measurement": "cell number / cell killing (in words)", "setting": "[1]; Namalwa cells, p53 peptides, FIG. 2A", "result": "enhanced cell killing"},
      {"measurement": "G1 cell cycle arrest", "setting": "[3]", "result": "induced a G1 arrest that was indistinguishable from treatment with parental TATp53C′ peptide"},
      {"measurement": "effect on p53-deficient H1299 cells", "setting": "[4]", "result": "little to no effect"},
      {"measurement": "median survival", "setting": "Namalwa lymphoma cells", "result": 41, "unit": "days"}
    ]},
    {"molecule": "[dL]G[dA][dS][dW][dH][dR][dP][dD][dK]", "note": "[DV3 peptide (CXCR4 receptor ligand)]", "values": [
      {"measurement": "IC50", "setting": "[2]", "result": 1000, "unit": "nM"}
    ]}
  ]
}
